“And” between values parts separate entries of the source, which are not always exact repeats. Equal entries are not always repeated.
Key:
PR5 = test: Induction of PR5 (northern blot) by dicamba or DCSA; format: in vivo, soybean; settings: probe specific to PR5; procedures as for PR2
Pythium ultimum = Pythium ultimum inoculation of cotton seedlings after spray; format: in vivo; settings: same conditions kill plants not contacted with 3,6-DCSA
Procedure: Ten-day old Roundup Ready® Flex Cotton (Event MON 88913; U.S. Publ. 20060059590) seedlings were sprayed with a mixture of Roundup Weather Max® (Monsanto Company, St. Louis, Mo.) and 3,6-DCSA (BASF). The control plants were sprayed with water only. The cotton seedlings from both treatments were inoculated with Pythium ultimum by dipping seedling into inoculum slurry, 24 hours after the spray application. The positive control plants were neither sprayed nor inoculated with P. ultimum. […] Cotton plants treated with Roundup® and DCSA were as healthy as were the plants not inoculated with P. ultimum.

[1] = test system: Xanthomonas campestris pv. malvacearum; test: Bacterial blight inoculation of cotton plants after DCSA spray; format: in vivo; settings: two-week old cotton; DCSA spray 24 hours before tooth pick inoculation; unsprayed plants developed necrotic spots
Procedure: In this example, two-week old cotton plants were sprayed with DCSA while control plants received spray application of water only. The plants were inoculated with bacterial blight pathogen (Xanthomonas campestris pv. malvacearum) about 24 hours after the DCSA spray application using a tooth pick inoculation method. As shown in the FIG. 4, the cotton plants inoculated with the bacterial pathogen but not sprayed with DCSA developed necrotic spots, typical symptoms of bacterial blight. […] The results of this experiment indicate that DCSA application reduced bacterial infection on cotton plants when inoculated with bacterial pathogen 24 hours after the DCSA spray.

Meloidogyne incognita = test: Control of cotton root knot nematode (RKN) by DCSA; format: in vivo
Procedure: DCSA was unexpectedly found to control RKN gall formation, improve plant height and reduce number of eggs produced by the nematode in cotton plants (ST474) (Table 5). Ten to fourteen days old cotton plants were treated with DCSA at the rate of 1 lb/A, 24 hrs before inoculating them with RKN eggs. […] Plant height, gall rating, and egg counts were measured 45 days after inoculation. The gall rating scale was 0-5 with 0=no visible galling and 5=heavy galling.

[2] = test system: Verticillium (isolate DPL); test: Verticillium wilt protection in cotton, isolate DPL; format: in vivo, Verticillium dahliae; settings: cotton ST6611, DCSA 1 lb/A, glyphosate 0.75 lb/A, 24 hours before inoculation
Description: (§1) DCSA was unexpectedly found to provide protection to cotton plants against Verticillium dahliae, causal agent of cotton wilt disease (Table 6). Cotton plants of the variety ST6611, BOLLGARD 2, ROUNDUP READY FLEX, were inoculated with a moderate isolate (DPL) or a virulent isolate (King) of Verticillium by a seedling dipping method. Seedlings at the first true leaf stage were taken out from the pots, one inch of roots were cut off, seedlings were dipped in a spore slurry for one minute, and then transplanted back in the pots. These strains were isolated and provided by Dr. Terry Wheeler (Texas A&M University, TX USA). DCSA was applied at the rate of 1 lb/A and glyphosate (ROUNDUP WEATHERMAX, Monsanto Company, St. Louis, Mo.) at the rate of 0.75 lb/A 24 hours before inoculation. Protection against Verticillium was measured on a disease severity scale of 1-9:1 being healthy and 9 being dead because of disease, and also was measured as the number of plants that survived out of 10 inoculated plants.

[3] = test system: Verticillium (isolate King); test: Verticillium wilt protection in cotton, isolate King; format: in vivo, Verticillium dahliae; settings: cotton ST6611, DCSA 1 lb/A, glyphosate 0.75 lb/A, 24 hours before inoculation
Description: as §1

soybean plants [4] = test: Drought tolerance of soybean plants; format: in vivo; settings: for Root gdwt / Leaf gdwt / Leaf gfwt / Root gfwt: variety 2 under drought stress; for Root gdwt / Leaf gdwt: dry weight; for Root gdwt: surfactant 1.16; for Leaf gdwt: surfactant 2.37; for Leaf gfwt / Root gfwt: fresh weight; for Leaf gfwt: surfactant 8.01; for Root gfwt: surfactant 12.88
Procedure: Drought tolerance is an important agronomic trait. […] Soybean seeds of two varieties (1 and 2) were planted in soil in 4.5 inch pots, 3 seeds per pot. The seeds were germinated and plants grown to the V1 or V2 growth stage. DCSA was prepared (0.36 grams/60 milliliters in 20 percent acetone with 10 percent surfactant) and the plants sprayed with the DCSA solution at a rate equal to 0.5 pounds/Acre (lb/A) or 1.0 (lb/A) at day 0 or day 3 of the experiment. Water was withheld at day 0. The plants were rated on a scale of 1-4 for drought symptoms; 1—no symptoms; 2—minor symptoms, leaf curling and wilting; 3—substantial symptoms and wilting; 4—dead. The treatments were surfactant only, 0.5 lb/A DCSA, and 1.0 lb/A DCSA. The plants were treated with a surfactant or a DCSA solution, water withheld, and drought symptoms rated 2 days after treatment (2DAT), 3 days after treatment (3DAT), and 3DAT after rehydration (water added to soil saturation and plant recovery from drought symptoms measured). Fresh leaf weight (leaf grams fresh weight, leaf gfwt), fresh root weight (root grams fresh weight, root gfwt), leaf dry weight (leaf grams dry weight, leaf gdwt), and root dry weight (root grams dry weight, root gdwt) were measured.

soybean plants [5] = test: AMPA induced yellow flash in soybean; format: in vivo; settings: 8DAT, scale 1-3, surfactant alone 2.7
Procedure: Yellow flash is a symptom sometimes observed in glyphosate tolerant soybeans treated with glyphosate due to the formation of AMPA (aminomethyl phosphonic acid). A study was conducted to determine if DCSA treatment would protect soybean plants from AMPA induced yellow flash symptoms. Soybean plants were grown to V1-2 growth stage and divided into 3 treatment groups, 3 pots of plants per treatment. The treatments were 0.5 lb/A DCSA, 1.0 lb/A DCSA or surfactant alone. One day after treatment, all of the plants were sprayed with 1 lb/A of AMPA (Sigma Aldrich, St. Louis, Mo.) in surfactant. […] In an aspect of the present invention, a tolerance to yellow flash is provided due to improved plant health by DCSA applied to a plant in need of yellow flash tolerance or DCSA produced in vivo by the action of DMO on dicamba in transgenic plants comprising a DMO transgene.

[6] = individual cotton (ST474) plants 1-8, DCSA 1 lb/A 24 hrs before RKN eggs, 45 days after inoculation

Q: How did the “induction of PR5” value (PR5) turn out when `O=C(O)c1c(Cl)ccc(Cl)c1O` [DCSA, 3,6-dichloro salicylic acid] was run?
A: The value was “Induction of PR5”.

Q: What about the “survival of cotton plants after inoculation with Pythium ultimum” value (Pythium ultimum) of the same compound?
A: Its value is “survive inoculation”.

Q: What about the bacterial blight symptoms [1] of the same compound?
A: The bacterial blight symptoms was “only localized lesions (HR response) and no increase in bacterial blight symptoms”.

Q: And the “Egg Count/pot” value (Meloidogyne incognita; [6])?
A: The value was 8,160 and 9,120 and 5,200 and 3,720 and 3,360 and 3,040 and 1,800 and 2,200.

Q: What about the “Plant Height (cm)” value (Meloidogyne incognita; [6]) of the same compound?
A: Its value is 25.4 cm (3×) and 22.2 cm and 17.8 cm and 14.0 cm and 15.9 cm and 12.7 cm.

Q: And the “RKN Gall Rating (0-5)” value (Meloidogyne incognita; individual plants 1-8, 0=no visible galling, 5=heavy galling, 45 days after inoculation)?
A: The value was 0 (4×) and 2 and 1 (3×).

Q: What about the “RKN Gall Rating (0-5), Mean” value (Meloidogyne incognita; mean of 8 plants, RKN alone 2.6) of the same compound?
A: The value was 0.6.

Q: And the “Plant Height (cm), Mean” value (Meloidogyne incognita; mean of 8 plants, RKN alone 16.9)?
A: Its value is 19.8 cm.

Q: What about the “Severity rating (1-9)” value ([2]; 1 healthy, 9 dead, inoculated check 5) of the same compound?
A: Its value is 1.

Q: What about the “Plant survival rating (out of 10)” value ([2]; inoculated check 8) of the same compound?
A: Its value is 10.

Q: What about the “Severity rating (1-9)” value ([3]; 1 healthy, 9 dead, inoculated check 9) of the same compound?
A: Its value is 2.

Q: And the “Plant survival rating (out of 10)” value ([3]; inoculated check 0)?
A: The value was 10.

Q: What about the average drought rating (soybean plants [4]; soybean Variety 1, 0.5 lb/A DCSA, 2DAT, scale 1 no symptoms - 4 dead, surfactant 2) of the same compound?
A: Its average drought rating is 2.25.

Q: And the average drought rating (soybean plants [4]; soybean Variety 1, 0.5 lb/A DCSA, 3DAT fb rehydration, scale 1-4, surfactant 3.25)?
A: The average drought rating was 3.75.

Q: What about the average drought rating (soybean plants [4]; soybean Variety 1, 0.5 lb/A DCSA, 3DAT, scale 1-4, surfactant 3.5) of the same compound?
A: The average drought rating was 4.

Q: What about the average drought rating (soybean plants [4]; soybean Variety 1, 1.0 lb/A DCSA, 2DAT, scale 1-4, surfactant 2) of the same compound?
A: The average drought rating was 1.75.

Q: And the average drought rating (soybean plants [4]; soybean Variety 1, 1.0 lb/A DCSA, 3DAT fb rehydration, scale 1-4, surfactant 3.25)?
A: The average drought rating was 3.5.

Q: What about the average drought rating (soybean plants [4]; soybean Variety 1, 1.0 lb/A DCSA, 3DAT, scale 1-4, surfactant 3.5) of the same compound?
A: The average drought rating was 3.75.

Q: What about the average drought rating (soybean plants [4]; soybean Variety 2, 0.5 lb/A DCSA, 2DAT, scale 1 no symptoms - 4 dead, surfactant 1.5) of the same compound?
A: The average drought rating was 1.

Q: What about the average drought rating (soybean plants [4]; soybean Variety 2, 0.5 lb/A DCSA, 3DAT fb rehydration, scale 1-4, surfactant 3) of the same compound?
A: Its average drought rating is 2.5.

Q: What about the average drought rating (soybean plants [4]; soybean Variety 2, 0.5 lb/A DCSA, 3DAT, scale 1-4, surfactant 3.5) of the same compound?
A: Its average drought rating is 2.5.

Q: What about the average drought rating (soybean plants [4]; soybean Variety 2, 1.0 lb/A DCSA, 2DAT, scale 1-4, surfactant 1.5) of the same compound?
A: Its average drought rating is 1.25.

Q: And the average drought rating (soybean plants [4]; soybean Variety 2, 1.0 lb/A DCSA, 3DAT fb rehydration, scale 1-4, surfactant 3)?
A: Its average drought rating is 2.5.

Q: And the average drought rating (soybean plants [4]; soybean Variety 2, 1.0 lb/A DCSA, 3DAT, scale 1-4, surfactant 3.5)?
A: The average drought rating was 2.5.

Q: What about the Root gdwt (soybean plants [4]; 0.5 lb/A DCSA) of the same compound?
A: Its Root gdwt is 1.25 g.

Q: What about the Leaf gdwt (soybean plants [4]; 0.5 lb/A DCSA) of the same compound?
A: Its Leaf gdwt is 1.43 g.

Q: And the Leaf gfwt (soybean plants [4]; 0.5 lb/A DCSA)?
A: Its Leaf gfwt is 9.45 g.

Q: What about the Root gfwt (soybean plants [4]; 0.5 lb/A DCSA) of the same compound?
A: Its Root gfwt is 13.74 g.

Q: And the Root gdwt (soybean plants [4]; 1.0 lb/A DCSA)?
A: The Root gdwt was 1.34 g.

Q: What about the Leaf gdwt (soybean plants [4]; 1.0 lb/A DCSA) of the same compound?
A: The Leaf gdwt was 2.20 g.

Q: What about the Leaf gfwt (soybean plants [4]; 1.0 lb/A DCSA) of the same compound?
A: The Leaf gfwt was 13.94 g.

Q: And the Root gfwt (soybean plants [4]; 1.0 lb/A DCSA)?
A: Its Root gfwt is 15.40 g.

Q: And the Average symptoms (soybean plants [5]; 0.5 lb/A DCSA one day before 1 lb/A AMPA)?
A: The Average symptoms was 3.

Q: And the Average symptoms (soybean plants [5]; 1.0 lb/A DCSA one day before 1 lb/A AMPA)?
A: Its Average symptoms is 1.7.

Reference: US20130244875A1, “METHODS AND COMPOSITIONS FOR IMPROVING PLANT HEALTH” (priority 2006, published 2013)
